Experimental data taken from patent US7208303B2, “Bacterial nitric oxide synthases and uses thereof” (Cornell Research Foundation, Inc., priority 2003, dated 2007).

Tests used:
[1] = test system: thaxtomin A production by S. turgidiscabies; assay: Thaxtomin A production by S. turgidiscabies cultures in presence of NOS inhibitors (HPLC); assay type: cell-based, Streptomyces turgidiscabies; conditions: FIG. 4C, n=6
Method: (§1) Sonicated cell lysates from 3 mL cultures were run on 12% SDS-PAGE gels after 2.5 hr induction with 0.1 mM IPTG. […] The NOS intermediate N^ω-hydroxy-L-arginine (2 mM) and hydrogen peroxide (4 mM) were reacted with 20 μL of cell lysates shown in FIG. 4A and assayed for nitrite with the Griess reagents after 15 min.
(§2) Streptomyces turgidiscabies cultures were grown in oat bran broth or oat meal broth (Healy et al., Mol. Micro. 38:794–804 (2000); and Goyer et al., Phytopathology 88:442–445 (1998), which are hereby incorporated by reference in their entirety) inoculated with spores. After shaking at 150 rpm and 25° C. for 5–9 days the cultures were filtered and dry weight of the mycelia was measured. Thaxtomin was extracted from the filtrate with ethyl acetate, dried, redissolved in methanol, and quantified using HPLC (column: 5 μm C18; 250×4.6 mm; mobile phase: MeCN: H20:TFA (40:60:0.1)). In experiments investigating the suppression of thaxtomin production in the presence of L-NAME, this NOS inhibitor was dissolved in water, filter-sterilized, and added at the time of inoculation.
For stNOS to be responsible for thaxtomin nitration, stNOS should have NO synthase activity. Further, this activity and thaxtomin production should be arginine dependent. As predicted, overexpressed stNOS in E. coli produced nitrite from N-hydroxy-L-arginine in a standard NOS assay (FIGS. 4A–4B). N-hydroxy-L-arginine is an intermediate unique to the NOS catalytic reaction and nitrite represents the end product of NO reacting in oxygenated solution. NO synthase activity of the recombinant stNOS was inhibited by the selective NOS inhibitor nitro-L-arginine (FIG. 4B); nitro-L-arginine is the active form of Nitro-L-arginine methyl ester (NAME). NOS inhibitors were also evaluated for their effect on thaxtomin A production by S. turgidiscabies. […]

[2] = test system: S. turgidiscabies; assay: Bacterial growth of S. turgidiscabies cultures (dry weight of mycelia); assay type: cell-based, Streptomyces turgidiscabies; conditions: FIG. 4C
Method: as §1, §2

O=[N+]([O-])c1cccc2cn[nH]c12 [7-IN, 7-nitroindazole]
toxin production ([1]; 1.2 μM): inhibit toxin product
bacterial growth ([2]; 1.2 μM): without affecting bacterial growth

N=C(N)NN [AG, aminoguanidine]
toxin production ([1]; 270 μM): inhibit toxin product
bacterial growth ([2]; 270 μM): without affecting bacterial growth

CNC(=N)NCCC[C@H](N)C(=O)O [NMMA, NG-monomethyl-L-arginine]
toxin production ([1]; 510 μM): inhibit toxin product
bacterial growth ([2]; 510 μM): without affecting bacterial growth
